Reference: patent EP0103877A1, “Phosphate derivatives, process for preparation thereof and pharmaceutical compositions of the same” (FUJISAWA PHARMACEUTICAL CO., LTD., priority 1982, dated 1984)

system: Fibrosarcoma Meth A; test: Anti-tumor activity against Fibrosarcoma Meth A in mice (mean survival time, T/C); format: in vivo; settings: T/C x 100 of mean survival time (medicated vs control group); female BALB/c mice inoculated intrapleurally with 5 x 10^5 Meth A cells; compound injected into pleural cavity, 100 pg/0.05 ml/mouse three times (before 14 days, after 1 hour and after 3 days of tumor implantation)
Experimental: Groups of eight female BALB/c mice, aged 8-9 weeks and weighing 18.0-22.5 g were used.
Fibrosarcoma Meth A (hereinafter referred to as Meth A) was successively transferred every 7 days into BALB/c mice by intraperitoneal inoculation of the ascites cells thereof and the Meth A in the ascites cells as harvested 6 or 7 days after the inoculation was used as tumor cells.
Each of the BALB/c mice was inoculated intrapleurally with 5 x 10^5 Meth A cells in 0.1 ml Hanks solution.
Test compound was dissolved in phosphate buffer saline solution, and was injected into pleural cavity to each of the mice in doses of 100 pg/0.05 ml/mouse three times, i.e. before 14 days, after 1 hour and after 3 days of tumor implantation.
The control group was given with a vehicle alone in the same way.
The antitumor activity of the test compound was estimated by comparing mean survival time of the two groups. • T : Mean survival time of the medicated group • C : Mean survival time of the control group

Going from `CCCCCCCCCCCCCCCCCCOCC(COP(=O)([O-])OCC[N+](C)(C)C)OC` (racemic) [Control Compound, (rac)-1-O-Octadecyl-2-0-methyl-glycerol-3-phosphorylcholine, reference compound] to `CCCCCCCCCCCCCCCCCCO[C@H]1[C@@H](O)[C@H](OC)O[C@@H]1COP(=O)([O-])OCC[N+](C)(C)C` [Ex 6-(7), Methyl 3-O-octadecyl-β-D-ribofuranoside 5-(choline phosphate)], the “Anti-tumor activity *a (%)” value rises from 302.8% to 383%.

For `CCCCCCCCCCCCCCCCCCO[C@@H]1[C@@H](OC)[C@@H](OC)O[C@@H]1COP(=O)([O-])OCC[N+](C)(C)C` [Ex 4-(3), Methyl 2-0-methyl-3-0-octadecyl-a-D-xylofuranoside 5-(choline phosphate)], the “Anti-tumor activity *a (%)” value was 408%.
